Source: patent US11926626B2, “Heterocyclic GLP-1 agonists” (Gasherbrum Bio, Inc., priority 2020, dated 2024)

biological target: GLP-1 Receptor (Homo sapiens, UniProt P43220); assay: GLP-1R agonist cAMP stimulation assay (HEK293/GLP1R/CRE-Luc cells, HTRF cAMP); type: cell-based; conditions: 30 min, 37° C.
Protocol: Activation of GLP-1 receptor is known to stimulate cyclic AMP (cAMP) production in cells which indicates primary coupling to the Gαs subunit of the G protein heterotrimeric complex.
To optimize functional activity directed toward Gαs coupling, a HEK293/CRE-Luc cell line developed by HDB stably expressing the GLP-1 Receptor was used. […] 1×10^5 cells/mL HEK293/GLP1R/CRE-LUC(HD Biosciences) cell suspensions prepared with assay buffer[DPBS containing 0.5 mM IBMX (Sigma, Cat #I5879) and 0.1% BSA (GENVIEW, Cat #FA016-100g)], 10 uL cell suspensions were added to each well of previous generated assay plate which already contains 50 nl compound at 200×concentration using ThermoFisher Multidrop Combi (1000 cells/well). Seal the plate and incubate at 37° C. with 5% CO2 for 30 min.
After incubation the cAMP assay signal was generated using cAMP dynamic 2 Kit (Cisbio). 5 μL cAMP-d2 working solution was added to each well, followed with 5 μL Anti-cAMP antibody-cryptate working solution added to each well using ThermoFisher Multidrop Combi. Incubate at room temperature for 1 hour protected from light.

GLP-1 Receptor, sequence (P43220 24-463): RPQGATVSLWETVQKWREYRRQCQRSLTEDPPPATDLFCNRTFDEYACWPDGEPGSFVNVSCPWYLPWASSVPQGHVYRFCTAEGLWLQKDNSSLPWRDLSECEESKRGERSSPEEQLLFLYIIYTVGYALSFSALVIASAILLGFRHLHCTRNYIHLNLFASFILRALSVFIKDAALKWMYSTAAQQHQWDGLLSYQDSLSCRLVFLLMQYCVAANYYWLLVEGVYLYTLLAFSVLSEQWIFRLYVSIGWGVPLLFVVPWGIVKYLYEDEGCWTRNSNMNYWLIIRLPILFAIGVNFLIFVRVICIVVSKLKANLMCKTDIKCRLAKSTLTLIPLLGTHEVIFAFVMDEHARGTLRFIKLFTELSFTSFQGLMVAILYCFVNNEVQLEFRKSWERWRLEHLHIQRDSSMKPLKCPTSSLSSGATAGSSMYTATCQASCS

With `O=C(O)c1ccc2nc(CN3CCC(Oc4cccc(Cc5ccc(Cl)s5)n4)CC3)n(C[C@@H]3CCO3)c2n1` [Compound 147a, 2-{[4-({6-[(5-chlorothiophen-2-yl)methyl]pyridin-2-yl}oxy)piperidin-1-yl]methyl}-3-{[(2S)-oxetan-2-yl]methyl}-3H-imidazo[4,5-b]pyridine-5-carboxylic acid] the “GLP1R cAMP Stimulation DR: pEC50” value was 9.7.

same assay, conditions: 30 min, 37° C.; read-out: GLP1R cAMP Stimulation DR: EC50

`O=C(O)c1ccc2nc(CN3CCC(Oc4cccc(Cc5ccc(Cl)s5)n4)CC3)n(C[C@@H]3CCO3)c2n1` [Compound 147a, 2-{[4-({6-[(5-chlorothiophen-2-yl)methyl]pyridin-2-yl}oxy)piperidin-1-yl]methyl}-3-{[(2S)-oxetan-2-yl]methyl}-3H-imidazo[4,5-b]pyridine-5-carboxylic acid] was tested, and the EC50 was 0.2 nM.

same assay, conditions: HEK293/CRE-Luc cells stably expressing GLP-1 Receptor; 30 min, 37° C.

In order of rising “GLP1R cAMP Stimulation DR: pEC50” value:
1. O=C(O)c1ccc2nc(CN3CCC(Oc4ccc(F)c(Cc5ccc(Cl)cc5F)n4)CC3)n(C[C@@H]3CCO3)c2n1 [Compound 150a, (S)-2-((4-((6-(4-chloro-2-fluorobenzyl)-5-fluoropyridin-2-yl)oxy)piperidin-1-yl)methyl)-3-(oxetan-2-ylmethyl)-3H-imidazo[4,5-b]pyridine-5-carboxylic acid]  7.2
2. O=C(O)c1ccc2nc(CN3CCC(Oc4cc(C(F)(F)F)cc(Cc5ccc(Cl)cc5)n4)CC3)n(C[C@@H]3CCO3)c2n1 [Compound 156a, 2-{[4-({6-[(4-chlorophenyl)methyl]-4-(trifluoromethyl)pyridin-2-yl}oxy)piperidin-1-yl]methyl}-3-{[(2S)-oxetan-2-yl]methyl}-3H-imidazo[4,5-b]pyridine-5-carboxylic acid]  7.4
3. O=C(O)c1ccc2nc(CN3CCC(Oc4cccc(Cc5ccc(Cl)cc5)c4F)CC3)n(C[C@@H]3CCO3)c2n1 [Compound 157a, 2-[(4-{3-[(4-chlorophenyl)methyl]-2-fluorophenoxy}piperidin-1-yl)methyl]-3-{[(2S)-oxetan-2-yl]methyl}-3H-imidazo[4,5-b]pyridine-5-carboxylic acid]  7.4
4. Cc1cc(Cc2ccc(Cl)cc2)nc(OC2CCN(Cc3nc4ccc(C(=O)O)nc4n3C[C@@H]3CCO3)CC2)c1 [Compound 154a, 2-{[4-({6-[(4-chlorophenyl)methyl]-4-methylpyridin-2-yl}oxy)piperidin-1-yl]methyl}-3-{[(2S)-oxetan-2-yl]methyl}-3H-imidazo[4,5-b]pyridine-5-carboxylic acid]  7.6
5. O=C(O)c1ccc2nc(CN3CCC(Oc4cccc(Cn5ccc(Cl)cc5=O)n4)CC3)n(C[C@@H]3CCO3)c2n1 [Compound 149a, 2-{[4-({6-[(4-chloro-2-oxo-1,2-dihydropyridin-1-yl)methyl]pyridin-2-yl}oxy)piperidin-1-yl]methyl}-3-{[(2S)-oxetan-2-yl]methyl}-3H-imidazo[4,5-b]pyridine-5-carboxylic acid]  8.3
6. O=C(O)c1ccc2nc(CN3CCC(Oc4cccc(CN5Cc6ccccc6C5=O)n4)CC3)n(C[C@@H]3CCO3)c2n1 [Compound 148a, 3-{[(2S)-oxetan-2-yl]methyl}-2-{[4-({6-[(1-oxo-2,3-dihydro-1H-isoindol-2-yl)methyl]pyridin-2-yl}oxy)piperidin-1-yl]methyl}-3H-imidazo[4,5-b]pyridine-5-carboxylic acid]  8.4
7. O=C(O)c1ccc2nc(CN3CCC(Oc4cc(Cl)cc(Cc5ccc(Cl)cc5)n4)CC3)n(C[C@@H]3CCO3)c2n1 [Compound 155a, 2-{[4-({4-chloro-6-[(4-chlorophenyl)methyl]pyridin-2-yl}oxy)piperidin-1-yl]methyl}-3-{[(2S)-oxetan-2-yl]methyl}-3H-imidazo[4,5-b]pyridine-5-carboxylic acid]  8.4
8. O=C(O)c1ccc2nc(CN3CCC(Oc4ccnc(Cc5ccc(Cl)cc5)c4)CC3)n(C[C@@H]3CCO3)c2n1 [Compound 159a, 2-{[4-({2-[(4-chlorophenyl)methyl]pyridin-4-yl}oxy)piperidin-1-yl]methyl}-3-{[(2S)-oxetan-2-yl]methyl}-3H-imidazo[4,5-b]pyridine-5-carboxylic acid]  8.6
9. O=C(O)c1ccc2nc(CN3CCC(Oc4ccnc(Cc5ccc(Cl)cc5F)n4)C(F)(F)C3)n(C[C@@H]3CCO3)c2n1 (stereo partly drawn) [Compound 168a, 2-{[4-({2-[(4-chloro-2-fluorophenyl)methyl]pyrimidin-4-yl}oxy)-3,3-difluoropiperidin-1-yl]methyl}-3-{[(2S)-oxetan-2-yl]methyl}-3H-imidazo[4,5-b]pyridine-5-carboxylic acid]  8.9
10. O=C(O)c1ccc2nc(CN3CCC(Oc4ccnc(Cc5ccc(F)cc5F)n4)CC3)n(C[C@@H]3CCO3)c2n1 [Compound 165a, 2-{[4-({2-[(2,4-difluorophenyl)methyl]pyrimidin-4-yl}oxy)piperidin-1-yl]methyl}-3-{[(2S)-oxetan-2-yl]methyl}-3H-imidazo[4,5-b]pyridine-5-carboxylic acid]  9.4
11. O=C(O)c1cnc2nc(CN3CCC(Oc4ccnc(Cc5ccc(Cl)cc5F)n4)CC3)n(C[C@@H]3CCO3)c2c1 [Compound 161a, 2-{[4-({2-[(4-chloro-2-fluorophenyl)methyl]pyrimidin-4-yl}oxy)piperidin-1-yl]methyl}-1-{[(2S)-oxetan-2-yl]methyl}-1H-imidazo[4,5-b]pyridine-6-carboxylic acid]  9.7
12. O=C(O)c1ccc2nc(CN3CCC(Oc4ccnc(Cc5ccc(Cl)cc5F)n4)CC3)n(C[C@@H]3CCO3)c2c1 [Compound 160a, 2-{[4-({2-[(4-chloro-2-fluorophenyl)methyl]pyrimidin-4-yl}oxy)piperidin-1-yl]methyl}-1-{[(2S)-oxetan-2-yl]methyl}-1H-1,3-benzodiazole-6-carboxylic acid]  9.9
13. O=C(O)c1ccc2nc(CN3CCC(Oc4ccnc(Cc5ccc(Cl)c(Cl)c5)n4)CC3)n(C[C@@H]3CCO3)c2n1 [Compound 167a, 2-{[4-({2-[(3,4-dichlorophenyl)methyl]pyrimidin-4-yl}oxy)piperidin-1-yl]methyl}-3-{[(2S)-oxetan-2-yl]methyl}-3H-imidazo[4,5-b]pyridine-5-carboxylic acid]  9.9
14. O=C(O)c1ccc2nc(CN3CCC(Oc4nc(Cc5ccc(Cl)cc5F)ncc4F)CC3)n(C[C@@H]3CCO3)c2n1 [Compound 151a, (S)-2-((4-((2-(4-chloro-2-fluorobenzyl)-5-fluoropyrimidin-4-yl)oxy)piperidin-1-yl)methyl)-3-(oxetan-2-ylmethyl)-3H-imidazo[4,5-b]pyridine-5-carboxylic acid]  10.1
15. N#CC1(Cn2c(CN3CCC(Oc4ccnc(Cc5ccc(Cl)cc5F)n4)CC3)nc3ccc(C(=O)O)cc32)CC1 [Compound 162, 2-{[4-({2-[(4-chloro-2-fluorophenyl)methyl]pyrimidin-4-yl}oxy)piperidin-1-yl]methyl}-1-[(1-cyanocyclopropyl)methyl]-1H-1,3-benzodiazole-6-carboxylic acid]  10.1
16. O=C(O)c1ccc2nc(CN3CCC(Oc4ccnc(Cc5ccc(Cl)cc5)n4)CC3)n(C[C@@H]3CCO3)c2n1 [Compound 152a, 2-{[4-({2-[(4-chlorophenyl)methyl]pyrimidin-4-yl}oxy)piperidin-1-yl]methyl}-3-{[(2S)-oxetan-2-yl]methyl}-3H-imidazo[4,5-b]pyridine-5-carboxylic acid]  10.4

With `O=C(O)c1ccc2nc(CN3CCC(Oc4cccc(Cc5ccc(Cl)cc5)c4Cl)CC3)n(C[C@@H]3CCO3)c2n1` [Compound 158a, 2-[(4-{2-chloro-3-[(4-chlorophenyl)methyl]phenoxy}piperidin-1-yl)methyl]-3-{[(2S)-oxetan-2-yl]methyl}-3H-imidazo[4,5-b]pyridine-5-carboxylic acid] the “GLP1R cAMP Stimulation DR: pEC50” value was under 6.0.

same assay, conditions: HEK293/CRE-Luc cells stably expressing GLP-1 Receptor; 30 min, 37° C.; read-out: GLP1R cAMP Stimulation DR: EC50

`O=C(O)c1ccc2nc(CN3CCC(Oc4ccnc(Cc5ccc(F)cc5F)n4)CC3)n(C[C@@H]3CCO3)c2n1` [Compound 165a, 2-{[4-({2-[(2,4-difluorophenyl)methyl]pyrimidin-4-yl}oxy)piperidin-1-yl]methyl}-3-{[(2S)-oxetan-2-yl]methyl}-3H-imidazo[4,5-b]pyridine-5-carboxylic acid] gave an EC50 of 0.4 nM.
